We go through three compounds from patent US5317039A, “Cyclopropyl-alanine aryl/alkylsulfide/sulfonyl-terminated amino-diol compounds for treatment of hypertension” (G. D. Searle & Co., priority 1992, dated 1994).

In one assay the target is T1, human renin (Homo sapiens, UniProt P00797).
T1 construct: purchased National Institute for Biological Standards, London
T1 sequence (P00797 67-406): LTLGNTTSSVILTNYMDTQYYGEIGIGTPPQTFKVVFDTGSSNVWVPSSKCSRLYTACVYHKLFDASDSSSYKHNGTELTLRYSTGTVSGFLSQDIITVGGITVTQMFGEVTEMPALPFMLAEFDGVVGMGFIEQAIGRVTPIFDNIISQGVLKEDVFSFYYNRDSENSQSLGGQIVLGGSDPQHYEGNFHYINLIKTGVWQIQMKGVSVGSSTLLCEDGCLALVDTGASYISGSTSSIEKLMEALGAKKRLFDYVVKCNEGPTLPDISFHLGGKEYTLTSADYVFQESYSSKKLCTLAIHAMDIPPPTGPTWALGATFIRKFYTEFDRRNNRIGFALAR
Put plainly: Human Renin Inhibition in vitro. It counts as biochemical. Conditions: pH 7.4, 2 h at 37° C., human plasma, angiotensin I by radioimmunoassay. The method, then: Compounds of Formula I were evaluated as inhibitors of human renin in an in vitro assay, as follows: This human renin inhibition test has been previously described in detail [Papaioannou et al., Clinical and Experimental Hypertension, A7(9), 1243-1257 (1985)]. Human renin was obtained from the National Institute for Biological Standards, London. An incubation mixture was prepared containing the following components: in a total volume of 0.25 mL: 100 mM Tris-acetate buffer at pH 7.4, 25×10^-6 Goldblatt units of renin, 0.05 mL of plasma from human volunteers taking oral contraceptives, 6.0 mM Na-EDTA, 2.4 mM phenylmethyl sulfonyl fluoride, 1.5 mM 8-hydroxyquinoline, 0.4 mg/mL bovine serum albumin (BSA), and 0.024 mg/mL neomycin sulfate. This mixture was incubated for two hours at 37° C. in the presence or absence of renin inhibitors. The produced angiotensin I was determined by radioimmunoassay (New England Nuclear kit). Test compounds to be assayed were dissolved in DMSO and diluted with 100 mM Tris-acetate buffer at pH 7.4 containing 0.5% BSA to the appropriate concentration. The final concentration of organic solvent in the reaction mixture was less than 1%. Control incubations at 37° C. were used to correct for effects of organic solvent on renin activity.

The next assay relates to renin. To be noted: cited from earlier work.
In another assay the test system is hog renin. To be noted: nephrectomized rats, after injection of hog renin; cited from earlier work.
For a further assay, the system named is cathepsin D. Conditions: cited from earlier work.
The test system of a further assay is pepsin. Conditions: cited from earlier work.

Square brackets hold non-standard residues; d marks the D form. Peptide text beside a SMILES is read from it. * marks the point of attachment. Sta = CC(C)C[C@H](N)[C@@H](O)CC(=O)O; Isovaleryl = CC(C)CC(=O)*

In the case of `CC(C)C[C@H](O)[C@H](O)[C@H](CC1CCCCC1)NC(=O)[C@H](CC1CC1)NC(=O)C(Cc1ccccc1)CS(=O)(=O)C(C)(C)C` (stereo partly drawn) [Example 1], the IC50 at human renin worked out at 0.3 nM.

At human renin, `CC(C)C[C@H](O)[C@H](O)[C@H](CC1CCCCC1)NC(=O)[C@H](CC1CC1)NC(=O)C(CSC(C)(C)C)Cc1ccccc1` (stereo partly drawn) [Example 2] gave a half-maximal inhibitory concentration (IC50) of 2.7 nM.

For `CC(C)CC(=O)N[C@H](C(=O)N[C@H](C(=O)N[C@@H](CC(C)C)[C@@H](O)CC(=O)N[C@@H](C)C(=O)N[C@@H](CC(C)C)[C@@H](O)CC(=O)O)C(C)C)C(C)C` [pepstatin] (Isovaleryl-VV[Sta]A[Sta]-OH), the inhibitor of renin entry in the assay with renin is given as “inhibitor”. In addition, the “reduce blood pressure in vivo” value in the assay with hog renin is “reduce blood pressure in vivo”. In addition, in the assay on cathepsin D, the “inhibitor of cathepsin D” value is “inhibitor”. In the assay on pepsin, the inhibitor of pepsin entry is “inhibitor”.
